The text below walks through data of PMC7036995 (Molecules, 2020).

Where two headings read alike, the source gives them in different places.

Data set [1] addresses T1, human serum albumin (HSA) (Homo sapiens, UniProt P02768).
T1 construct: purchased Sigma-Aldrich; host or cells: rice
Briefly: Fluorescence spectroscopy of HSA (Trp fluorescence quenching/enhancement; KD by DynaFit). The class given is binding. Conditions: for change of HSA fluorescence with increasing ligand concentration: λEX = 295 nm, T = 310.15 K, pH 7.4, HSA 5 μM; for Kd: HSA 5 μM, pH 7.4, read-out: KD (Fluor.).
Method: To find out if there was any interaction when both studied compounds were present, we performed an analysis of ternary mixtures, [(HSA + Q) + R] and [(HSA + R) + Q], when the first-added compound was pre-incubated with HSA at a constant concentration and the second compound was added at variable concentrations. The concentrations of the first-added drug in the ternary system was 5 μM for Q and 400 μM for R. These concentrations were chosen as an approximate half-saturation point for both compounds.
Therefore, as in previously published research [14], we used the DynaFit software script. Data input consisted of [Ltotal] (total ligand concentrations) for the variable reactant concentrations, [Ptotal] (total protein concentration) for the fixed reactant concentration, and F/F0 for the experimentally observed value. The software calculates [Lfree] (free ligand concentration), creates a semilogarithmic plot of F/F0 vs. [Lfree] and determines the KD value by finding the halfway point in the sigmoid-shaped curve.
Fluorescence spectra were measured in triplicates on a FluoroMax 4 spectrofluorimeter (Horiba Jobin Yvon Scientific, Irvine, CA, USA), equipped with a 1.0 cm path length quartz cell. The slit widths for the excitation and emission were 3.0 nm for all measurements. […] Samples were incubated for 2 min. Buffer background was subtracted from the raw spectra. Fluorescence intensities were corrected for the absorption of excitation light and re-absorption of emitted light to decrease the inner filter using the following relationship [13]:(2) Fcor=Fobs×10^(Aex+Aem)/2 where Fcor and Fobs are the corrected and observed fluorescence intensities, respectively. Aex and Aem are the absorbance values of the experimental solution (including all ligands) at excitation and emission wavelengths, respectively. Corrected spectra were smoothed to minimize the influence of the signal noise.
Fluorescence spectral data after correction and smoothing were used to calculate the dissociation constant (KD) for all studied systems. For evaluation and logarithmic plot fitting we used DynaFit software (version 4.0, BioKin Ltd., Watertown, MA, USA, http://www.biokin.com/dynafit/index.html) using a custom-written script.

The target of data set [2] is T2, bovine serum albumin (BSA) (Bos taurus, UniProt P02769). Conditions: λEX = 295 nm, T = 310.15 K, pH 7.4, BSA 5 μM.
Method: Conditions: T = 310.15 K, pH = 7.4.
Conditions: λEX = 295 nm, T = 310.15 K, pH = 7.4. The HSA and BSA concentrations were 5 μM; FA concentrations were 0.52, 1.04, 2.08, 4.16, 8.33, 16.66, 33.33, 66.66 and 133.33 μM. R concentrations were 15.6, 31.25, 62.5, 125, 250, 500, 1000, 2000 and 4000 μM.
Fluorescence spectra were measured in triplicates on a FluoroMax 4 spectrofluorimeter (Horiba Jobin Yvon Scientific, Irvine, CA, USA), equipped with a 1.0 cm path length quartz cell. The slit widths for the excitation and emission were 3.0 nm for all measurements. The temperatures used for the measurements were 298.15 K, 303.15 K and 310.15 K, respectively. Samples were incubated for 2 min. Buffer background was subtracted from the raw spectra. Fluorescence intensities were corrected for the absorption of excitation light and re-absorption of emitted light to decrease the inner filter using the following relationship [13]:(2) Fcor=Fobs×10^(Aex+Aem)/2 where Fcor and Fobs are the corrected and observed fluorescence intensities, respectively. Aex and Aem are the absorbance values of the experimental solution (including all ligands) at excitation and emission wavelengths, respectively. Corrected spectra were smoothed to minimize the influence of the signal noise.
The subject of another data set is HSA. Conditions: cited from earlier work; for Kd: Sudlow's Site 1.
The target of data set [3] is T1, human serum albumin (HSA). Briefly: Microscale thermophoresis (MST) with RED-NHS labeled HSA. The class given is binding. As for the experimental part:
We performed a full set of MST measurements for mixtures where R was the compound with the concentration gradient.
Figure 9 The MST binding curves for all studied systems. Conditions: T = 297.05 K, pH = 7.4. The concentration of HSA was 20 nM, the starting concentrations of R were 7.15 mM, c(Q) in the ternary system was 20 nM.
For [(HSA + Q) + R] system it was possible to additionally derive KD value from the increase in fluorescence in the initial capillary scans. The mechanism of this feature is the same as in the regular fluorescence experiment (Figure 5).
The MST measurements were performed on Monolith NT.115 (NanoTemper Technologies, GmbH, Germany) instrument using Premium capillaries. HSA sample was labeled using RED-NHS protein labeling kit. Assay buffer was PBS with added 0.1% Pluronic F-127 as the surface agent. Ligand samples were dissolved in DMSO and then diluted with the assay buffer to the final concentration. Serial dilutions of the ligand were prepared, the protein was then added and the mixtures were incubated for 10 min at laboratory temperature. Each experiment was performed in three parallel measurements. The results were evaluated in the instrument software (MO.Control v1.6, NanoTemper Technologies, GmbH, Germany).

Another data set has as its system human serum proteins. Conditions: concentration range 0.01 to 10 mg/L, equilibrium dialysis; cited from earlier work. A general note: Equilibrium dialysis compares concentrations on both sides of a semipermeable membrane.
For data set [4], the target named is T2, bovine serum albumin (BSA). Particulars: Site 1 of BSA; read-out: dissociation constant KD; cited from earlier work.

T1 sequence (P02768 25-609): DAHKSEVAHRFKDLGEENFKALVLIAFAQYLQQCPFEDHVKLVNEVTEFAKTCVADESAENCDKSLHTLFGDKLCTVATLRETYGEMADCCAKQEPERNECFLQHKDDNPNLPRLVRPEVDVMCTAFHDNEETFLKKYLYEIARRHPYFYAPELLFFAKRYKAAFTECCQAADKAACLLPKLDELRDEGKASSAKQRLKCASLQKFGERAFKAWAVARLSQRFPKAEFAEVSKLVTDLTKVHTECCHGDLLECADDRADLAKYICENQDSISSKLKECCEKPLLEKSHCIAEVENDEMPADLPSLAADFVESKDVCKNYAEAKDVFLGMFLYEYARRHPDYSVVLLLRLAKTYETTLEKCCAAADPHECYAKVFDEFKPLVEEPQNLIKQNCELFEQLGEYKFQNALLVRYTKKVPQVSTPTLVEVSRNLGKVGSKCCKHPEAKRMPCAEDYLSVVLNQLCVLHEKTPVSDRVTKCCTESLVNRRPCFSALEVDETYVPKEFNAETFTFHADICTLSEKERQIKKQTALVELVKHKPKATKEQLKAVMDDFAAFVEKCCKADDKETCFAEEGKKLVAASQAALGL
T2 sequence (P02769 25-607): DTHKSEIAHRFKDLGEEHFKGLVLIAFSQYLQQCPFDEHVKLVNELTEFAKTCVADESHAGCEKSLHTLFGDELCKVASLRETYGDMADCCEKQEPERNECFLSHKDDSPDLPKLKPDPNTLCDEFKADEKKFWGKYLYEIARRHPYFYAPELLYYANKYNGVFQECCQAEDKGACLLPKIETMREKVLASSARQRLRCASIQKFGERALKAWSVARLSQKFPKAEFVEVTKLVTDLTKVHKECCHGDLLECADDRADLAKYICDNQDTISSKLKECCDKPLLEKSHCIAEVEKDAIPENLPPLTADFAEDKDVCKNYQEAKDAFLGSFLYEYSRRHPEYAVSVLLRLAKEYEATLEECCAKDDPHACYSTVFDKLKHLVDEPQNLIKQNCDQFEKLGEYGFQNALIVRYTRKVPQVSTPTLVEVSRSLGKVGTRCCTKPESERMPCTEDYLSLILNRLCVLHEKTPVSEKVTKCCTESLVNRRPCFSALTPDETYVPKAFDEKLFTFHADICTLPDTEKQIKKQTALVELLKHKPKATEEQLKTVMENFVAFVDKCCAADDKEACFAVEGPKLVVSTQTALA

With `CC(=O)O[C@H]1C[C@@]2(C)[C@@H](C[C@@H](O)[C@H]3[C@@]4(C)CC[C@@H](O)[C@@H](C)[C@@H]4CC[C@@]32C)/C1=C(\CCC=C(C)C)C(=O)O` [fusidic acid], the “change of HSA fluorescence with increasing ligand concentration” value in data set [1] is “remains more or less constant”. In data set [2], the “change of BSA fluorescence with increasing ligand concentration” value is on record as “decrease”.

What is called Kd is the concentration at which binding is half-saturated. As for `O=c1c(O)c(-c2ccc(O)c(O)c2)oc2cc(O)cc(O)c12` [quercetin], the equilibrium dissociation constant (Kd) in data set [1] (binary system HSA + ligand) was 2.28 ± 0.61 µM; in data set [1] (ternary system [(HSA + R) + Q]: HSA pre-incubated with 400 μM R, Q varied), 34.7 ± 15.1 µM; in the data set with HSA (ref 13), 6.1 µM; in the data set with HSA (ref 14), 6.48 µM. For the same molecule, the “bound to HSA” value in the data set on HSA is 99%.

For `CCOC(=O)[C@H](CCc1ccccc1)N[C@@H](C)C(=O)N1[C@H](C(=O)O)C[C@@H]2CCC[C@@H]21` [ramipril], the Kd in data set [3] (binary system HSA + R, T = 297.05 K, pH 7.4, HSA 20 nM, read-out: KD (MST)) was 775 ± 75.3 µM; in data set [3] (ternary system [(HSA + Q) + R], c(Q) 20 nM, HSA 20 nM, T = 297.05 K, pH 7.4, read-out: KD (MST)), 112 ± 24.6 µM; in data set [3] (ternary system [(HSA + Q) + R], from increase in fluorescence in the initial capillary scans, c(Q) 20 nM, HSA 20 nM, read-out: KD (MST Fluorescence)), 168 ± 29.8 µM; in data set [1] (binary system HSA + ligand) it was 1220 ± 677 µM; in data set [1] (ternary system [(HSA + Q) + R]: HSA pre-incubated with 5 μM Q, R varied), 593 ± 90.6 µM; in data set [4], 28.5 µM. The “KD for binding of R compared with KD for Q” value in data set [1] (HSA) is recorded as “more than hundredfold larger”. Moreover, the “change of HSA fluorescence with increasing ligand concentration” value in data set [1] is given as “increases”. Moreover, the “bound to human serum proteins” value in the data set on human serum proteins is given as 73%.

For the molecule `C[C@H](N[C@@H](CCc1ccccc1)C(=O)O)C(=O)N1[C@H](C(=O)O)C[C@@H]2CCC[C@@H]21` [ramiprilat], the “bound to human serum proteins” value in the data set with human serum proteins was 56%.
